Experiments:
Format in all cases: in vivo
soybean (Glycine max) = experiment: Test F pre-/postemergence: soybean
In short: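 0–100 visual control scores, taken 14–21 d after application in the greenhouse. Preemergence treatment was made to silt loam soil at sowing. Postemergence sprays hit 1- to 4-leaf plants (2–18 cm) in peat/vermiculite mix. Surfactant-containing non-phytotoxic solvent served as the vehicle.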

[1] = test system: foxtail, giant (giant foxtail, Setaria faberii); experiment: Test F pre-/postemergence: foxtail, giant; settings: Preemergence
Text: (§1) Seeds of plant species selected from corn (Zea mays), soybean (Glycine max), velvetleaf (Abutilon theophrasti), lambsquarters (Chenopodium album), poinsettia, wild (wild poinsettia, Euphorbia heterophylla), pigweed, palmer (palmer pigweed, Amaranthus palmeri), waterhemp (common waterhemp, Amaranthus rudis), surinam grass (Brachiaria decumbens), crabgrass, Brazil (Brazilian crabgrass, Digitaria horizontalis), panicum, fall (fall panicum Panicum dichotomiflorum), crabgrass, large (large crabgrass, Digitaria sanguinalis), foxtail, giant (giant foxtail, Setaria faberii), foxtail, green (green foxtail Setaria viridis), goosegrass (Eleusine indica), ragweed (common ragweed, Ambrosia elatior), barnyardgrass (Echinochloa crus-galli), sandbur (southern sandbur, Cenchrus echinatus), arrowleaf sida (Sida rhombifolia), ryegrass, Italian (Italian ryegrass, Lolium multiflorum), dayflower, VA (Virginia (VA) dayflower, Commelina virginica), field bindweed (Convolvulus arvensis), cocklebur (common cocklebur, Xanthium strumarium), morningglory (Ipomoea coccinea), nightshade (eastern black nightshade, Solanum ptycanthum), kochia (Kochia scoparia), nutsedge, yellow (yellow nutsedge, Cyperus esculentus), johnsongrass (Sorghum halepense), smartweed (ladysthumb smartweed, Polygonum persicaria), and beggarticks (hairy beggarticks, Bidens pilosa), were planted into a silt loam soil and treated preemergence with test chemicals formulated in a non-phytotoxic solvent mixture which included a surfactant. At the same time, plants selected from these crop and weed species and also pigweed (Amaranthus retroflexus), waterhemp_RES1 (ALS/Triazine resistant common waterhemp, Amaranthus rudis) and waterhemp_RES2 (ALS/HPPD resistant common waterhemp, Amaranthus rudis) were planted in pots containing a planting medium comprising spaghnum peat moss, vermiculite, wetting agent and starter nutrients treated with postemergence applications of some of the test chemicals formulated in the same manner. Plants ranged in height from 2 to 18 cm for postemergence treatments (1- to 4-leaf stage).
(§2) Treated plants and controls were maintained in a greenhouse for 14 to 21 days, after which time all species were compared to controls and visually evaluated. Plant response ratings, summarized in Table E, are based on a scale of 0 to 100 where 0 is no effect and 100 is complete control. A dash (-) response means no test result.

[2] = test system: velvetleaf (Abutilon theophrasti); experiment: Test F pre-/postemergence: velvetleaf; settings: Preemergence
Text: as §1, §2

[3] = test system: canarygrass (Phalaris minor); experiment: Test D pre-/postemergence: canarygrass
Text: (§3) Seeds of plant species selected from bluegrass (annual bluegrass, Poa annua), blackgrass (Alopecurus myosuroides), canarygrass (Phalaris minor), chickweed (common chickweed, Stellaria media), galium (catchweed bedstraw, Galium aparine), bromegrass, downy (downy bromegrass, Bromus tectorum), field poppy (Papaver rhoeas), field violet (Viola arvensis), foxtail, green (green foxtail, Setaria viridis), deadnettle (henbit deadnettle, Lamium amplexicaule), ryegrass, Italian (Italian ryegrass, Lolium multiflorum), kochia (Kochia scoparia), lambsquarters (Chenopodium album), oilseed rape (Brassica napus), pigweed (Amaranthus retroflexus), Russian thistle (Salsola iberica), chamomile (scentless chamomile, Matricaria inodora), speedwell (bird's-eye speedwell, Veronica persica), barley, spring (spring barley, Hordeum vulgare), wheat, spring (spring wheat, Triticum aestivum), buckwheat, wild (wild buckwheat, Polygonum convolvulus), mustard, wild (wild mustard, Sinapis arvensis), oat, wild (wild oat, Avena fatua), radish, wild (wild radish, Raphanus raphanistrum), windgrass (Apera spica-venti), barley, winter (winter barley, Hordeum vulgare), and wheat, winter (winter wheat, Triticum aestivum) were planted into a silt loam soil and treated preemergence with test chemicals formulated in a non-phytotoxic solvent mixture which included a surfactant. At the same time, these same crop and weed species were planted in pots containing the planting medium comprising spaghnum peat moss, vermiculite, wetting agent and starter nutrients and treated with postemergence applications of the test chemicals formulated in the same manner. Plants ranged in height from 2 to 18 cm (1- to 4-leaf stage).
as §2, with “controlled growth environment” for “greenhouse”, “days” for “days,”, “D,” for “E,”

[4] = test system: field violet (Viola arvensis); experiment: Test D pre-/postemergence: field violet
Text: as §3
as §2, with “controlled growth environment” for “greenhouse”, “days” for “days,”, “D,” for “E,”

[5] = test system: speedwell (bird's-eye speedwell, Veronica persica); experiment: Test D pre-/postemergence: speedwell; settings: Preemergence
In short: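 Scores run from 0 (no effect) to 100 (complete control), assigned by visual comparison with controls after 14 to 21 days in a controlled environment. Both preemergence application to silt loam and postemergence application to 1- to 4-leaf plants were tested.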

[6] = Preemergence, 16 g ai/ha, scale 0 to 100, 0 no effect, 100 complete control
[7] = Preemergence, 31 g ai/ha, scale 0 to 100, 0 no effect, 100 complete control
[8] = Preemergence, 125 g ai/ha, scale 0 to 100
[9] = Preemergence, 250 g ai/ha, scale 0 to 100
[10] = 16 g ai/ha, scale 0 to 100, 0 no effect, 100 complete control
[11] = 31 g ai/ha, scale 0 to 100, 0 no effect, 100 complete control
[12] = Postemergence, 31 g ai/ha, scale 0 to 100 (0 no effect, 100 complete control)
[13] = Postemergence, 62 g ai/ha, scale 0 to 100 (0 no effect, 100 complete control)
[14] = Postemergence, 125 g ai/ha, scale 0 to 100, 0 no effect, 100 complete control
[15] = Postemergence, 16 g ai/ha, scale 0 to 100
[16] = Preemergence, 62 g ai/ha, scale 0 to 100
[17] = Postemergence, 31 g ai/ha, scale 0 to 100
[18] = Postemergence, 62 g ai/ha, scale 0 to 100
[19] = Postemergence, 125 g ai/ha, scale 0 to 100
[20] = 8 g ai/ha, scale 0 to 100, 0 no effect, 100 complete control
[21] = Postemergence, 250 g ai/ha, scale 0 to 100

COc1nn(-c2cccc(F)c2)nc1Cc1ccnc(C(F)(F)F)c1 [Compound 139]
Plant response rating, Soybean (soybean (Glycine max); [6]): 0
Plant response rating, Soybean (soybean (Glycine max); [7]): 0
Plant response rating, Soybean (soybean (Glycine max); [8]): 0
Plant response rating, Soybean (soybean (Glycine max); [9]): 35
Plant response rating, Foxtail, Giant [1, 10]: 0
Plant response rating, Foxtail, Giant [1, 11]: 40
Plant response rating, Foxtail, Giant ([1]; 62 g ai/ha, scale 0 to 100): 85
Plant response rating, Foxtail, Giant ([1]; 125 g ai/ha, scale 0 to 100): 98
Plant response rating, Foxtail, Giant ([1]; 250 g ai/ha, scale 0 to 100): 100
Plant response rating, Velvetleaf [2, 10]: 0
Plant response rating, Velvetleaf [2, 11]: 0
Plant response rating, Velvetleaf ([2]; 125 g ai/ha, scale 0 to 100): 0
Plant response rating, Velvetleaf ([2]; 250 g ai/ha, scale 0 to 100): 65

CCOc1nn(-c2ccc(F)cc2)nc1Cc1ccnc(C(F)(F)F)c1 [Compound 196, 4-[[5-ethoxy-2-(4-fluorophenyl)-2H-1,2,3-triazol-4-yl]methyl]-2-(trifluoromethyl)pyridine]
Plant response rating: Canarygrass [3, 12]: 70
Plant response rating: Canarygrass [3, 13]: 80
Plant response rating: Canarygrass [3, 14]: 85
Plant response rating, Canarygrass [3, 15]: 30
Plant response rating, Canarygrass [3, 6]: 40
Plant response rating, Canarygrass [3, 7]: 100
Plant response rating, Canarygrass [3, 16]: 100
Plant response rating, Canarygrass [3, 8]: 100
Plant response rating: Field Violet [4, 12]: 85
Plant response rating: Field Violet [4, 13]: 95
Plant response rating: Field Violet [4, 14]: 100
Plant response rating, Field Violet [4, 15]: 80
Plant response rating, Field Violet [4, 6]: 80
Plant response rating, Field Violet [4, 7]: 95
Plant response rating, Field Violet [4, 16]: 100
Plant response rating, Field Violet [4, 8]: 100
Plant response rating, Speedwell [5, 10]: 5
Plant response rating, Speedwell [5, 11]: 100
Plant response rating, Speedwell ([5]; 62 g ai/ha, scale 0 to 100): 100
Plant response rating, Speedwell ([5]; 125 g ai/ha, scale 0 to 100): 100
Plant response rating, Soybean (soybean (Glycine max); Postemergence, 8 g ai/ha, scale 0 to 100): 50
Plant response rating, Soybean (soybean (Glycine max); [15]): 60
Plant response rating, Soybean (soybean (Glycine max); [17]): 65
Plant response rating, Soybean (soybean (Glycine max); [18]): 70
Plant response rating, Soybean (soybean (Glycine max); [19]): 80
Plant response rating, Soybean (soybean (Glycine max); Preemergence, 8 g ai/ha, scale 0 to 100, 0 no effect, 100 complete control): 0
Plant response rating, Soybean (soybean (Glycine max); [6]): 0
Plant response rating, Soybean (soybean (Glycine max); [7]): 20
Plant response rating, Soybean (soybean (Glycine max); [8]): 35
Plant response rating, Foxtail, Giant [1, 20]: 5
Plant response rating, Foxtail, Giant [1, 10]: 85
Plant response rating, Foxtail, Giant [1, 11]: 98
Plant response rating, Foxtail, Giant ([1]; 62 g ai/ha, scale 0 to 100): 98
Plant response rating, Foxtail, Giant ([1]; 125 g ai/ha, scale 0 to 100): 100
Plant response rating, Velvetleaf [2, 20]: 0
Plant response rating, Velvetleaf [2, 10]: 10
Plant response rating, Velvetleaf [2, 11]: 20
Plant response rating, Velvetleaf ([2]; 125 g ai/ha, scale 0 to 100): 95

Cc1nn(-c2ccc(F)cc2F)nc1Oc1ccnc(C(F)(F)F)c1 [Compound 146]
Plant response rating, Soybean (soybean (Glycine max); [6]): 0
Plant response rating, Soybean (soybean (Glycine max); [7]): 0
Plant response rating, Soybean (soybean (Glycine max); [8]): 0
Plant response rating, Soybean (soybean (Glycine max); [9]): 0
Plant response rating, Foxtail, Giant [1, 10]: 20
Plant response rating, Foxtail, Giant [1, 11]: 20
Plant response rating, Foxtail, Giant ([1]; 62 g ai/ha, scale 0 to 100): 90
Plant response rating, Foxtail, Giant ([1]; 125 g ai/ha, scale 0 to 100): 98
Plant response rating, Foxtail, Giant ([1]; 250 g ai/ha, scale 0 to 100): 100
Plant response rating, Velvetleaf [2, 10]: 0
Plant response rating, Velvetleaf [2, 11]: 0
Plant response rating, Velvetleaf ([2]; 125 g ai/ha, scale 0 to 100): 0
Plant response rating, Velvetleaf ([2]; 250 g ai/ha, scale 0 to 100): 25

CCc1nn(-c2ccc(F)c(F)c2)nc1Oc1ccnc(C(F)(F)F)c1 [Compound 171]
Plant response rating, Soybean (soybean (Glycine max); [6]): 0
Plant response rating, Soybean (soybean (Glycine max); [7]): 0
Plant response rating, Soybean (soybean (Glycine max); [8]): 0
Plant response rating, Soybean (soybean (Glycine max); [9]): 20
Plant response rating, Foxtail, Giant [1, 10]: 40
Plant response rating, Foxtail, Giant [1, 11]: 60
Plant response rating, Foxtail, Giant ([1]; 62 g ai/ha, scale 0 to 100): 100
Plant response rating, Foxtail, Giant ([1]; 125 g ai/ha, scale 0 to 100): 100
Plant response rating, Foxtail, Giant ([1]; 250 g ai/ha, scale 0 to 100): 100
Plant response rating, Velvetleaf [2, 10]: 0
Plant response rating, Velvetleaf [2, 11]: 0
Plant response rating, Velvetleaf ([2]; 125 g ai/ha, scale 0 to 100): 15
Plant response rating, Velvetleaf ([2]; 250 g ai/ha, scale 0 to 100): 50

CCc1nn(-c2ccc(C(F)(F)F)cc2)nc1Oc1ccnc(C(F)(F)F)c1 [Compound 169]
Plant response rating, Soybean (soybean (Glycine max); [21]): 50
Plant response rating, Soybean (soybean (Glycine max); [15]): 20
Plant response rating, Soybean (soybean (Glycine max); [17]): 20
Plant response rating, Soybean (soybean (Glycine max); [18]): 30
Plant response rating, Soybean (soybean (Glycine max); [19]): 40
Plant response rating, Soybean (soybean (Glycine max); [6]): 0
Plant response rating, Soybean (soybean (Glycine max); [7]): 0
Plant response rating, Soybean (soybean (Glycine max); [9]): 20
Plant response rating, Foxtail, Giant [1, 10]: 70
Plant response rating, Foxtail, Giant [1, 11]: 100
Plant response rating, Foxtail, Giant ([1]; 62 g ai/ha, scale 0 to 100): 100
Plant response rating, Foxtail, Giant ([1]; 125 g ai/ha, scale 0 to 100): 100
Plant response rating, Foxtail, Giant ([1]; 250 g ai/ha, scale 0 to 100): 100
Plant response rating, Velvetleaf [2, 10]: 0
Plant response rating, Velvetleaf [2, 11]: 0
Plant response rating, Velvetleaf ([2]; 125 g ai/ha, scale 0 to 100): 60
Plant response rating, Velvetleaf ([2]; 250 g ai/ha, scale 0 to 100): 100

CCCc1nn(-c2ccc(F)c(F)c2)nc1Oc1ccnc(C(F)(F)F)c1 [Compound 172]
Plant response rating, Soybean (soybean (Glycine max); [21]): 90
Plant response rating, Soybean (soybean (Glycine max); [17]): 50
Plant response rating, Soybean (soybean (Glycine max); [19]): 75
Plant response rating, Soybean (soybean (Glycine max); [7]): 0
Plant response rating, Soybean (soybean (Glycine max); [8]): 20
Plant response rating, Soybean (soybean (Glycine max); [9]): 20
Plant response rating, Foxtail, Giant [1, 11]: 100
Plant response rating, Foxtail, Giant ([1]; 125 g ai/ha, scale 0 to 100): 100
Plant response rating, Foxtail, Giant ([1]; 250 g ai/ha, scale 0 to 100): 100
Plant response rating, Velvetleaf [2, 11]: 0
Plant response rating, Velvetleaf ([2]; 125 g ai/ha, scale 0 to 100): 80
Plant response rating, Velvetleaf ([2]; 250 g ai/ha, scale 0 to 100): 100

CCc1nn(-c2ccc(F)cc2)nc1Cc1ccnc(C(F)(F)F)c1 [Compound 154]
Plant response rating, Soybean (soybean (Glycine max); [6]): 0
Plant response rating, Soybean (soybean (Glycine max); [7]): 0
Plant response rating, Soybean (soybean (Glycine max); [8]): 25
Plant response rating, Soybean (soybean (Glycine max); [9]): 25
Plant response rating, Foxtail, Giant [1, 10]: 5
Plant response rating, Foxtail, Giant [1, 11]: 65
Plant response rating, Foxtail, Giant ([1]; 62 g ai/ha, scale 0 to 100): 100
Plant response rating, Foxtail, Giant ([1]; 125 g ai/ha, scale 0 to 100): 100
Plant response rating, Foxtail, Giant ([1]; 250 g ai/ha, scale 0 to 100): 100
Plant response rating, Velvetleaf [2, 10]: 0
Plant response rating, Velvetleaf [2, 11]: 20
Plant response rating, Velvetleaf ([2]; 125 g ai/ha, scale 0 to 100): 40
Plant response rating, Velvetleaf ([2]; 250 g ai/ha, scale 0 to 100): 100

From patent publication US9302999B2, “Substituted triazoles as herbicides” (E. I. DU PONT DE NEMOURS AND COMPANY, priority 2012, dated 2016)
